pIC50: −log10 of the molar value. “And” between values parts separate entries of the source, which are not always exact repeats. Identical values can stand only once.

In the assay the target is T1, Dual specificity protein phosphatase 5 [180-384] (Homo sapiens, UniProt Q16690).
T1 construct: 180-384
T1 sequence (Q16690 whole entry): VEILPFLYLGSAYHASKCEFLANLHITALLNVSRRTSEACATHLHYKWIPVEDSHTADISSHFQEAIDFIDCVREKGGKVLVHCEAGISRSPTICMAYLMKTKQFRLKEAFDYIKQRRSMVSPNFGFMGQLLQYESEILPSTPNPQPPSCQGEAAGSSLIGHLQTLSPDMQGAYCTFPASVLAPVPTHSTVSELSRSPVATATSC
The assay can be described thus: p-NPP Assay. Conditions: 25 °C. On the procedure: For the 96-well plate validation assay, sodium orthovanadate (Sigma Aldrich) was utilized as a positive control for inhibition [Swarup et al., Biochem. Biophys. Res. Commun., 107:1104-9] at a final concentration of 10 μM, to completely block DUSP5(WT) enzymatic activity. All plate assays were performed in standard 96-well clearbottom plates (Thermo Scientific Nunc) with a total assay volume of 200 μL, using a SpectraMax M5 Microplate Reader (Molecular Devices). The plate validation assay was performed with replicate columns of positive control wells, negative control wells and blank wells. Blank columns contained only buffer and pNPP. Negative control (uninhibited) contained buffer, pNPP, and DUSP5PD(WT); and, positive control contained the same components,but also contained 10 μM sodium orthovanadate. The plate was then shaken and allowed to equilibrate in the spectrophotometer at 25 °C for 30 min. After incubation, 4 μL of a 50 μM enzyme stock was dispensed into appropriate wells utilizing a single-channel pipette. This produced a final enzyme concentration of1 μM. Before a read was taken, the plate was shaken for five seconds. The initial rate for the DUSP5PD(WT) reaction was linear for approximately 90 min;and, the plate was kept in the spectrophotometer at 25 °C for an additional 80 min after the kinetic read. The endpoint reading was subsequently taken at 90 min after initiation of reaction.
As for `O=S(=O)(O)c1ccc2[nH]c3c(S(=O)(=O)O)cc(S(=O)(=O)O)cc3c2c1` [RR505], the pIC50 (commonly −log10 of the IC50, conventionally taken in molar units) was 2.29 and 1.59.
As for `Cc1ccc(C(=O)Nc2ccc(S(=O)(=O)O)c3cc(S(=O)(=O)O)cc(S(=O)(=O)O)c23)cc1NC(=O)c1cccc(NC(=O)Nc2cccc(C(=O)Nc3cc(C(=O)Nc4ccc(S(=O)(=O)O)c5cc(S(=O)(=O)O)cc(S(=O)(=O)O)c45)ccc3C)c2)c1` [Suramin hexasodium], the figure is 4.36.
As for `O=S(=O)(O)c1ccc2c(S(=O)(=O)O)cc(S(=O)(=O)O)cc2c1` [naphthalene-1,3,6-trisulfonate(3-)], the figure is 2.19.

The record behind these values is BindingDB's records for doi:10.1186/s12858-015-0048-3 (Texas Wesleyan University, 2015).
